“And” between values parts separate entries of the source, which are not always exact repeats. Identical values can stand only once.
Details: Liquid, Transpiration method

O=Cc1ccco1 [2-furaldehyde]
Details | vapor or sublimation pressure [kPa]
276.7 K | 0.0525
281.5 K | 0.0746
285.4 K | 0.1011
288.4 K | 0.1293
290.6 K | 0.1516
293.2 K | 0.182
295.5 K | 0.2088
298.2 K | 0.2589
300.5 K | 0.3002
303.1 K | 0.3652
308.2 K | 0.4911
312.2 K | 0.6213
315.1 K | 0.7411
317.9 K | 0.9108
320.1 K | 1.04
323.4 K | 1.256

OCCc1ccccc1 [2-phenylethanol]
Details | vapor or sublimation pressure
287.8 K | 0.00251 kPa
289.7 K | 0.00285 kPa
292.7 K | 0.00399 kPa
295.1 K | 0.00482 kPa
297.5 K | 0.00626 kPa
302.5 K | 0.00976 kPa
308.2 K | 0.0153 kPa
312.5 K | 0.02276 kPa
316.6 K | 0.03091 kPa
317.6 K | 0.03285 kPa
322.7 K | 0.05022 kPa and 0.05028 kPa
322.8 K | 0.05055 kPa
327.8 K | 0.06913 kPa
332.8 K | 0.09839 kPa
337.9 K | 0.1395 kPa
342.9 K | 0.2097 kPa
348.1 K | 0.2794 kPa
353.2 K | 0.3777 kPa
358.3 K | 0.5243 kPa
363.3 K | 0.6922 kPa

O=Cc1ccccc1 [benzaldehyde]
Details | vapor or sublimation pressure [kPa]
278.4 K | 0.04083
282.3 K | 0.05524
286.3 K | 0.07697
290.3 K | 0.09697
294.3 K | 0.1372
298.4 K | 0.1775
303.2 K | 0.246
308.2 K | 0.3195
313.2 K | 0.4306

O=CCc1ccccc1 [α-tolualdehyde]
Details | vapor or sublimation pressure [kPa]
293.2 K | 0.01683
298.1 K | 0.02456
303.1 K | 0.03724
308.2 K | 0.05436
313.7 K | 0.0801
317.9 K | 0.111
323 K | 0.15
328.1 K | 0.2162
332.1 K | 0.2883
338 K | 0.4029
343 K | 0.5498
